Consider eleven compounds from US20250114460A1, “NOVEL PLK1 DEGRADATION INDUCING COMPOUND” (UPPTHERA, INC., priority 2021, published 2025).

What all share (type): cell-based
In one data set the target is T1, PLK1 (Homo sapiens, UniProt P53350).
T1 construct: endogenous in cells; host or cells: HeLa LgBit (Plk1-HiBit KI): HeLa stably expressing LgBit, with a CRISPR/Cas9 knock-in of HiBit at the endogenous PLK1 locus
The data set is described as follows: Luciferase assay for PLK1 in HeLa LgBit (Plk1-HiBit KI) cell line. As to conditions: 300 nM compound, luminescence after 9 hours. An outline of the steps: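 HeLa cells stably expressing LgBit, with HiBit knocked in at the C-terminus of endogenous Plk1, released from a 24 h 2 mM thymidine block and grown 18 h. Endurazine added, then compound at 300 nM; luminescence tracked in real time, expressed as ratio to DMSO.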

In a further data set the test system is NCI-H526 cell line. As to the kind of experiment: Cell viability assay for H526 cell (EZ-Cytox). The settings on record: Homo sapiens, NCI-H526, 120 h; H526 cells, 5 days, 3000 nM to 0.46 nM. On the procedure: (1) Culture of NCI-H526 Cell Line
(2) Treatment of Compounds of the Present Invention and Method of Cell Viability Assay
After treating the compound to each well to make the total volume of 200 μL, it was cultured in a CO2 incubator (Thermo Fisher Science, Cat. No. 4111) for 5 days.
The absorbance of the completely cultured sample was measured by setting the wavelength of a plate reader (BMG Labtech, CLARIOstar Plus) to […], and was measured after shaking for 3 minutes in a plate reader before measurement.
In Table 3, Activity represents IC50 value of each Exemplary Compound treatment group to H526 cell line (A: <30 nM, B: <50 nM, C: <100 nM, D: <200 nM, E: <400 nM).

For the next data set, the system named is MRC-5 cell line. As to the kind of experiment: Cell viability assay for MRC-5 cell line (EZ-Cytox). As to conditions: for IC50: Homo sapiens, MRC5, 120 h, MRC-5 normal cell line, 5 days, 10000 nM to 1.52 nM, N.D. = no cytotoxicity until 10 μM, read-out: Activity: IC50 value of Exemplary Compound to MRC-5 cell line. On the procedure: 4. Cell Viability Assay for MRC-5 Cell Line
(1) Culture of MRC-5 Cell Line
Passage of cultured cells was maintained within P15.
(2) Treatment of Compounds of the Present Invention
Then, it was cultured in 37° C.
(3) Cytotoxicity Experiment
CO2 incubator for 4 hours.

Molecules are shown by their SMILES. Where only a bound is given, the exact number is not on record here.

T1 sequence (P53350 whole entry): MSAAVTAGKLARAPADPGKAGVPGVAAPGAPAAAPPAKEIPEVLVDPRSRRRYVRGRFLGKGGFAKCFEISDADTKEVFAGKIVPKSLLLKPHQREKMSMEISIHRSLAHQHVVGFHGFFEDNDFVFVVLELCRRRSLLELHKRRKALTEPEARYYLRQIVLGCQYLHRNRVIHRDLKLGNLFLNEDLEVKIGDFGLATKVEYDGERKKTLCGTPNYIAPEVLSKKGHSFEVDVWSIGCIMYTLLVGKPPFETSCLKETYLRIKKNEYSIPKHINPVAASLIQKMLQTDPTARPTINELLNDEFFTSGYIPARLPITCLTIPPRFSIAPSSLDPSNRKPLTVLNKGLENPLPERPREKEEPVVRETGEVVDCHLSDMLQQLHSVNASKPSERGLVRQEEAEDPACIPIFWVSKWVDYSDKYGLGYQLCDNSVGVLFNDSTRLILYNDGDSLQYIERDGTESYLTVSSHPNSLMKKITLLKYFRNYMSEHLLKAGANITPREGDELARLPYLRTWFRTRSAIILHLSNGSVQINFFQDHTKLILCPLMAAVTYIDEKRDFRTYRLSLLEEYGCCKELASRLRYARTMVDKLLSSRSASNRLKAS

Take `C=C[C@@]1(F)CN(C2CCCC2)c2nc(Nc3ccc(C(=O)NC4CCN(C(=O)CCN5CCN(c6cccc7c6C(=O)N(C6CCC(=O)NC6=O)C7=O)CC5)CC4)cc3OC)ncc2N(C)C1=O` (single isomer, unassigned) [Compound 108]: the “Activity: ratio of the luminescense value of each Exemplary Compound treatment group to DMSO treatment group” value (“Activity: ratio” for short) on PLK1 is listed as “++ (++<0.6)”. Besides, the IC50 in the data set with NCI-H526 cell line is less than 100 nM; in the data set with MRC-5 cell line, more than 10 µM.
As to `CC[C@@H]1C(=O)N(C)c2cnc(Nc3ccc(C(=O)NCCOCCOCCNc4cccc5c4C(=O)N(C4CCC(=O)NC4=O)C5=O)cc3OC)nc2N1C1CCCC1` (some centres unmarked) [Comparative Compound 1, reference compound], in the data set with MRC-5 cell line (MRC-5, in words), the “cytotoxicity in normal cell line” value was “exhibited a high level of cytotoxicity in normal cell line”.
On to `COc1cc(C(=O)NC2CCN(CCOc3cccc4c3C(=O)N(C3CCC(=O)NC3=O)C4=O)CC2)ccc1Nc1ncc2c(n1)N(C1CCCC1)CC(F)(F)C(=O)N2C` (centres unmarked) [Compound 5, 4-((9-cyclopentyl-7,7-difluoro-5-methyl-6-oxo-6,7,8,9-tetrahydro-5H-pyrimido[4,5-b][1,4]diazepin-2-yl)amino)-N-(1-(2-((2-(2,6-dioxopiperidin-3-yl)-1,3-dioxoisoindolin-4-yl)oxy)ethyl)piperidin-4-yl)-3-methoxybenzamide], for which, on PLK1, the “Activity: ratio” value is “++ (++<0.6)”. Moreover, the results for the IC50 in the data set on NCI-H526 cell line and in the data set with MRC-5 cell line were less than 400 nM and 20 µM, respectively.
Turning to `COc1cc(C(=O)N[C@H]2CCN(CCOc3cccc4c3C(=O)N(C3CCC(=O)NC3=O)C4=O)C2)ccc1Nc1ncc2c(n1)N(C1CCCC1)CC(F)(F)C(=O)N2C` (stereo partly drawn) [Compound 9, 4-((9-cyclopentyl-7,7-difluoro-5-methyl-6-oxo-6,7,8,9-tetrahydro-5H-pyrimido[4,5-b][1,4]diazepin-2-yl)amino)-N-((3S)-1-(2-((2-(2,6-dioxopiperidin-3-yl)-1,3-dioxoisoindolin-4-yl)oxy)ethyl)pyrrolidin-3-yl)-3-methoxybenzamide], the “Activity: ratio” value at PLK1 is “++ (++<0.6)”. For the same compound, the IC50 in the data set on MRC-5 cell line was more than 10 µM.
Consider `COc1cc(C(=O)N[C@H]2CC[C@H](N(C)CCCOc3cccc4c3C(=O)N(C3CCC(=O)NC3=O)C4=O)CC2)ccc1Nc1ncc2c(n1)N(C1CCCC1)CC(F)(F)C(=O)N2C` (some centres unmarked) [Compound 15, 4-((9-cyclopentyl-7,7-difluoro-5-methyl-6-oxo-6,7,8,9-tetrahydro-5H-pyrimido[4,5-b][1,4]diazepin-2-yl)amino)-N-((1r,4r)-4-((3-((2-(2,6-dioxopiperidin-3-yl)-1,3-dioxoisoindolin-4-yl)oxy)propyl)(methyl)amino)cyclohexyl)-3-methoxybenzamide], for which the “Activity: ratio” value at PLK1 is listed as “++ (++<0.6)”. Moreover, the IC50 is less than 50 nM in the data set with NCI-H526 cell line and 16.7 µM with MRC-5 cell line.
Take `COc1cc(C(=O)NC2CCN(CCOCCOCCNc3cccc4c3CN(C3CCC(=O)NC3=O)C4=O)CC2)ccc1Nc1ncc2c(n1)N(C1CCCC1)CC(F)(F)C(=O)N2C` (centres unmarked) [Compound 18, 4-((9-cyclopentyl-7,7-difluoro-5-methyl-6-oxo-6,7,8,9-tetrahydro-5H-pyrimido[4,5-b][1,4]diazepin-2-yl)amino)-N-(1-(2-(2-(2-((2-(2,6-dioxopiperidin-3-yl)-1-oxoisoindolin-4-yl)amino)ethoxy)ethoxy)ethyl)piperidin-4-yl)-3-methoxybenzamide]: on PLK1, the “Activity: ratio” value is given as “++ (++<0.6)”. Moreover, the IC50 in the data set on NCI-H526 cell line was less than 30 nM; in the data set with MRC-5 cell line, more than 10 µM.
The like results for `COc1cc(C(=O)NC2CCN(C(=O)CCCNc3cccc4c3C(=O)N(C3CCC(=O)NC3=O)C4=O)CC2)ccc1Nc1ncc2c(n1)N(C1CCCC1)CC(F)(F)C(=O)N2C` (centres unmarked) [Compound 25, 4-((9-cyclopentyl-7,7-difluoro-5-methyl-6-oxo-6,7,8,9-tetrahydro-5H-pyrimido[4,5-b][1,4]diazepin-2-yl)amino)-N-(1-(4-((2-(2,6-dioxopiperidin-3-yl)-1,3-dioxoisoindolin-4-yl)amino)butanoyl)piperidin-4-yl)-3-methoxybenzamide] were, in that order, “++ (++<0.6)”, less than 50 nM and more than 10 µM.
Consider `CN1C(=O)C(F)(F)CN(C2CCCC2)c2nc(Nc3ccc(C(=O)NC4CCN(C(=O)CCCNc5cccc6c5C(=O)N(C5CCC(=O)NC5=O)C6=O)CC4)cc3OC(F)(F)F)ncc21` (centres unmarked) [Compound 28, 4-((9-cyclopentyl-7,7-difluoro-5-methyl-6-oxo-6,7,8,9-tetrahydro-5H-pyrimido[4,5-b][1,4]diazepin-2-yl)amino)-N-(1-(4-((2-(2,6-dioxopiperidin-3-yl)-1,3-dioxoisoindolin-4-yl)amino)butanoyl)piperidin-4-yl)-3-(trifluoromethoxy)benzamide], for which the “Activity: ratio” value on PLK1 is “++ (++<0.6)”. Besides, the IC50 with MRC-5 cell line is more than 10 µM.
In the same order, the values of `COc1cc(C(=O)N2CCC(N3CCC(C#Cc4ccc5c(c4)C(=O)N(C4CCC(=O)NC4=O)C5=O)CC3)CC2)ccc1Nc1ncc2c(n1)N(C1CCCC1)CC(F)(F)C(=O)N2C` (centres unmarked) [Compound 182, 5-((1′-(4-((9-cyclopentyl-7,7-difluoro-5-methyl-6-oxo-6,7,8,9-tetrahydro-5H-pyrimido[4,5-b][1,4]diazepin-2-yl)amino)-3-methoxybenzoyl)-[1,4′-piperidin]-4-yl)ethynyl)-2-(2,6-dioxopiperidin-3-yl)isoindoline-1,3-dione] are “++ (++<0.6)” and 9.75 µM.
Regarding `COc1cc(C(=O)N2CCC(N3CCN(CCOCCCNc4cccc5c4C(=O)N(C4CCC(=O)NC4=O)C5=O)CC3)CC2)c(F)cc1Nc1ncc2c(n1)N(C1CCCC1)CC(F)(F)C(=O)N2C` (centres unmarked) [Compound 190, 4-((3-(2-(4-(1-(4-((9-cyclopentyl-7,7-difluoro-5-methyl-6-oxo-6,7,8,9-tetrahydro-5H-pyrimido[4,5-b][1,4]diazepin-2-yl)amino)-2-fluoro-5-methoxybenzoyl)piperidin-4-yl)piperazin-1-yl)ethoxy)propyl)amino)-2-(2,6-dioxopiperidin-3-yl)isoindoline-1,3-dione], at PLK1, the “Activity: ratio” value is “++ (++<0.6)”. Further, the IC50 with NCI-H526 cell line is less than 30 nM.
In the same order, the values of `COc1cc(C(=O)NN2CCC(N3CC4(CCN(c5cccc6c5CN(C5CCC(=O)NC5=O)C6=O)CC4)C3)CC2)ccc1Nc1ncc2c(n1)N(C(C)C)CC(F)(F)C(=O)N2C` (centres unmarked) [Compound 218, 4-((7,7-difluoro-9-isopropyl-5-methyl-6-oxo-6,7,8,9-tetrahydro-5H-pyrimido[4,5-b][1,4]diazepin-2-yl)amino)-N-(4-(7-(2-(2,6-dioxopiperidin-3-yl)-1-oxoisoindolin-4-yl)-2,7-diazaspiro[3.5]nonan-2-yl)piperidin-1-yl)-3-methoxybenzamide] are “++ (++<0.6)” and less than 50 nM.

Broadly, the IC50 is the concentration at which inhibition is half-maximal.
